In patent US20250255847A1, “[…]s: Novel Drugs for Triple Negative Breast Cancer” (SIMMARON RSEARCH INC, priority 2024, published 2025):

Legend:
[1] = target: T1, full-length STAT5b protein (Homo sapiens, UniProt P51692); test: Protein thermal shift binding assay with STAT5b; conditions: increasing doses
T1 construct: full-length STAT5b protein melting was assessed with (J) SIM-1, (K) SIM-2, and (L) stattic
T1 sequence (P51692 1-787): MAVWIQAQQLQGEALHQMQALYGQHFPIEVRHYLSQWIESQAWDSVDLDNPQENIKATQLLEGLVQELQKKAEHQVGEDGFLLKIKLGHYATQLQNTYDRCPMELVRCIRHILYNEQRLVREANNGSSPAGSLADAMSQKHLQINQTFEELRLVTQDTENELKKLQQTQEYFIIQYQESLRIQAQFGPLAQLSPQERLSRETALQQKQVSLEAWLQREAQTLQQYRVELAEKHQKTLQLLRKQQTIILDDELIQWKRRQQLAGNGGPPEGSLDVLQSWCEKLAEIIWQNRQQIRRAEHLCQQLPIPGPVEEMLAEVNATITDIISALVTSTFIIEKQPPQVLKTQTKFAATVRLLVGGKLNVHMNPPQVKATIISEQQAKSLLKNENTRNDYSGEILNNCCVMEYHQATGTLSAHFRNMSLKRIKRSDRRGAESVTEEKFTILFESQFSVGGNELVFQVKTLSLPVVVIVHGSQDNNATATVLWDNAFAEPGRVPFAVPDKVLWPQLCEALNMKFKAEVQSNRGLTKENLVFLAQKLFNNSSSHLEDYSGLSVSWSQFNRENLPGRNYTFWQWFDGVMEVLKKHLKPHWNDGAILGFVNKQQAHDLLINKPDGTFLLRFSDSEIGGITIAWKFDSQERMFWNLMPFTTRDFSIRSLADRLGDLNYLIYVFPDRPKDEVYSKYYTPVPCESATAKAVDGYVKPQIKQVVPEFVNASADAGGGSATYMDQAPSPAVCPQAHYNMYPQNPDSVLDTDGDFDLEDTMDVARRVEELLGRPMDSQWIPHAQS
Protocol: (§1) FIG. 5 illustrates an embodiment of the present invention and illustrates evaluations of SIM-1 and SIM-2 as STAT3 inhibitors. (A) Protein thermal shift assay was performed to assess the melting of purified recombinant STAT3 (blue; 0.5 μg protein) (Tm=melting temperature=68.88° C.). The representative melting curves were derived after adding SIM-1 (red; 4 nM), SIM-2 (purple; 8 nM), and positive control stattic (grey; 20 nM) to the STAT3 protein. The differences of melting temperature (ΔTm) between pure protein and protein+ligands are −4.54° C., −4.16° C., and 0.39° C. for SIM-1, SIM-2, and stattic (ΔTm^cut-off>2° C.). (B) Phospho protein array analysis was conducted in cell lysates of MDA-MB-468 cells treated with DMSO control (top left), 25 ng/mL EGF (top right), EGF+10 nM SIM-1 (bottom left), and EGF+SIM-2 (bottom right) for 24 hrs. Each colored arrowhead represents a specific phosphoprotein, and the description was added in the bottom of array images. S=serine and Y=tyrosine. Relative levels of (C) Tyrosine 705 (Y705) phosphorylated STAT3, (D) Serine 727 (S727) phosphorylated STAT3, (E) Tyrosine 693 (Y693) phosphorylated STAT4, (F) Tyrosine 694 ([…]) phosphorylated STAT5A had been derived after normalizing the spot densities (n=5) with respective β-actin spots. Results are mean±SD of five different spot analyses. One-way ANOVA was adopted to test the significance of mean between groups at **p<0.01, and ****p<0.0001. Ns=no significance. Thermal shift assays of increasing doses of (G) SIM-1, (H) SIM-2, and (I) stattic with purified STAT1 protein (0.5 μg protein). The respective ΔTm values were given with the plot after matching with the color code. Similarly, full-length STAT5b protein melting was assessed with (J) SIM-1, (K) SIM-2, and (L) stattic. Results are confirmed after three different experiments.
To confirm the result, PTS assay of STAT1 with SIM-1 (FIG. 5G), SIM-2 (FIG. 5H), and stattic (FIG. 5I) was performed. […] Similar results were observed while performing the binding assay with STAT5b.

[2] = target: STAT3 (Homo sapiens, UniProt P40763); test: Protein thermal shift assay with recombinant STAT3; format: binding; parameters: purchased Active motif 81095; conditions: for ΔTm of STAT3: cut-off 2° C.; for lowest concentration that significantly (>2° C.) shifted the melt curve of STAT3: as low as; for EC50: non-linear hyperbolic binding curve, read-out: EC50 (half-maximal binding, maximum fluorescence versus dose)
Chain of STAT3 (P40763 whole entry): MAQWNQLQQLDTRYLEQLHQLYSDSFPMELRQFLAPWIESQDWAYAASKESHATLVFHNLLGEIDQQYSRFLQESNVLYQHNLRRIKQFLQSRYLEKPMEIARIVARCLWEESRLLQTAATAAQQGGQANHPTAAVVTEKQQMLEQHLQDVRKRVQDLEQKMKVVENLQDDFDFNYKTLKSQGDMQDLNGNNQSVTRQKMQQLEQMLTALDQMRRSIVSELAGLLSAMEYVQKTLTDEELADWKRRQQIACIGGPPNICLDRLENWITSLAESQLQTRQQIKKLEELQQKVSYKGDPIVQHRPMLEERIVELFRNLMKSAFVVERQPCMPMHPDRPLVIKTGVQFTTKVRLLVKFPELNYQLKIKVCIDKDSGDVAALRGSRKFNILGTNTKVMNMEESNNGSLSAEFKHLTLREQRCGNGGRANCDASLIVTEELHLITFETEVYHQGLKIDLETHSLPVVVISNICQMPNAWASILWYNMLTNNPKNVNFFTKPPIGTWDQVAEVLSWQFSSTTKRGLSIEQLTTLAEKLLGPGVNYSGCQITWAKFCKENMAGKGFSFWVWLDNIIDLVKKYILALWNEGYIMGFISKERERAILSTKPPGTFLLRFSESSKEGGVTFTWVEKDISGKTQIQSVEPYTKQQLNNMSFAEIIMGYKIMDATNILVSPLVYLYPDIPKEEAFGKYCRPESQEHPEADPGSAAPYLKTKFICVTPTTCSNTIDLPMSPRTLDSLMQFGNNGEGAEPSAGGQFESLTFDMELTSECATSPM
Protocol: as §1
FIG. 6 illustrates an embodiment of the present invention and illustrates dose-dependent curves of maximum fluorescence for SIM1 and SIM2. Protein thermal shift assay of recombinant STAT3 was performed with increasing doses of (A) SIM-1, (B) SIM-2, and (C) positive control “Stattic”. The maximum fluorescence for each dose was derived and then plotted in GraphPad Prism software with respective doses. The resultant non-liner hyperbolic curves provide half-maximal binding (EC50) for all three compounds.
This example provides a representative study of the present disclosure to test if SIM1 and SIM2 served as ligands of STAT3. Therefore, the present invention adopted a protein thermal shift assay in which […] of recombinant human STAT3 protein (active motif) was incubated with increasing doses of SIM1 and SIM2 followed by the execution of melting analysis starting from 25 to 95° C. as described elsewhere.

SMILES | shift in the melting curve of STAT5b [1] | ΔTm of STAT3 ([2]; 4 nM ligand) | lowest concentration that significantly (>2° C.) shifted the melt curve of STAT3 [2] | EC50 [2] | ΔTm of STAT3 ([2]; 6 nM ligand) | ΔTm of STAT3 ([2]; 8 nM ligand (FIG. 5A legend))
O=C(O)CCC(=O)NCc1csc2ccc(Cl)cc12 [SIM-1, 4-[(5-chloro-1-benzothiophen-3-yl)methylamino]-4-oxobutanoic acid] | unable to produce any significant shift | −4.54 °C | 5 nM | 4.58 nM | – | –
CCOC(=O)c1c(NC(C)=O)sc2c(Cl)c(/C=N/O)ccc12 [SIM-2, ethyl 2-acetamido-7-chloro-6-(hydroxyiminomethyl)-1-benzothiophene-3-carboxylate] | unable to produce any significant shift | – | 5 nM | 5.26 nM | −4.16 °C | −4.16 °C
